From patent publication US20230192705A1, “SHP2 INHIBITORS, COMPOSITIONS AND USES THEREOF” (Betta Pharmaceuticals Co., Ltd, priority 2020, published 2023)

Key:
[1] = In vitro metabolic stability in rat liver microsome; format: in vitro ADME; conditions: rat liver microsomes
Procedure: (§1) 1900 mg MgCl2 was dissolved into a final volume of 400 mL ultra-pure water.
(§2) 17.42 g K2HPO4 and 13.65 g KH2PO4 were dissolved into a final volume of 1000 mL ultra-pure water, respectively. K2HPO4 and KH2PO4 were mixed to prepare 100 mM potassium phosphate (PBS) buffer. The pH value of the final solution was adjusted to pH 7.30±0.10.
(§3) Cold ACN (including 10 ng/mL Labetalol and 10 ng/mL Glibenclamid) was stored at 4° C.
(§4) Working Solution Preparation:
(§5) Verapamil (positive control) and test compound stock solution were diluted into a concentration of 50 μM and 200 μM respectively, using MeOH/ACN/H2O solution (1:1:2, v/v/v).
(§6) 1) 40 μL MgCl2 and 306 μL PBS were added to 96 plate wells (blank, compound wells, compounds without NADPH wells)
(§7) 2) 4 μL compound working solution was added to above wells (blank: 4 μL PBS buffer) (Note: the volume of DMSO in final incubation system ≤0.5%)
(§8) 3) 10 μL microsomes (20 mg/mL) was added in each well. The mixture was warmed up for 10 minutes at 37.0° C.
(§9) 4) 40 μL 10 mM NADPH working solution was added to start reaction. The total volume was 400 μL.
(§10) 5) Aliquots of 50 μL samples were taken from the reaction solution at 0, 5, 15, 45 min. The reaction solutions were stopped by the addition of 400 μL stop solution.
(§11) 6) The sampling plates were shaked for approx. 5 min.
(§12) 7) Samples were centrifuged at 3200 rcf for 10 min. then transferred 50 μL to a new plate dilute with 200 μL H2O for LC/MS/MS analysis.
(§13) Use equation of first order kinetics to calculate t1/2 and CL: […]
(§14) Where k represents elimination constant, which is calculated from a log linear plot of % Remaining versus time. t1/2 represents the half-life. Cprotein is the concentration of liver microsomes.

[2] = In vitro metabolic stability in human liver microsome; format: in vitro ADME; conditions: human liver microsomes
Procedure: as §1, §2, §3, §4, §5, §6, §7, §8, §9, §10, §11, §12, §13, §14

[3] = system: lung cancer NCI-H358 cell; assay: Cell proliferation assay (CellTiter-Glo), NCI-H358; format: cell-based; conditions: Homo sapiens; NCI-H358, 96 hrs, CTG; class symbols; read-out: Compound on NCI-H358 cell IC50
Procedure, shortened: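 NCI-H358 cells were seeded at 2000 per well on ultra-low-attachment plates and exposed to compound (1000 nM down to 0.1524 nM, threefold steps) for 96 hrs at 37 °C. Viable cells were measured as ATP by CellTiter-Glo luminescence. Inhibition was computed against 0 nM and medium blanks, and IC50 from variable-slope fits.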

leukemia MV-4-11 cell = assay: Cell proliferation assay (CellTiter-Glo), MV-4-11; format: cell-based; conditions: Homo sapiens, MV4-11; MV-4-11, 120 hrs, CTG; class symbols; read-out: Compound on MV-4-11 cell IC50

SMILES: N[C@@H]1c2ccccc2CC12CCN(c1nc3[nH]nc(C4(c5csnn5)CC4)c3c(=O)[nH]1)CC2 [Example 240, (S)-3-(1-(1,2,3-thiadiazol-4-yl)cyclopropyl)-6-(1-amino-1,3-dihydrospiro[indene-2,4′-piperidin]-1′-yl)-1,5-dihydro-4H-pyrazolo[3,4-d]pyrimidin-4-one]
- CLint Rat [1]: 15.0 μL/min/mg proteins
- CLint Human [2]: 11.8 μL/min/mg proteins
- IC50 [3]: ≤ 20 nM
- IC50 (leukemia MV-4-11 cell): ≤ 20 nM
